Experimental data published in the METLIN SMRT retention time set (Domingo-Almenara et al. 2019).

Test: gradient 5% acetonitrile 3 min, to 50% in 2 min, to 85% in 15 min, held 3 min, 100 µL/min
Conditions: column: Zorbax Extend-C18 2.1 x 50 mm; eluents: water / acetonitrile, 0.1% formic acid
Outline: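 The mobile phases were water and acetonitrile, each with 0.1% formic acid, pumped at 100 μL/min through a Zorbax Extend-C18 column (2.1 × 50 mm, 1.8 μm). Pure standards were injected as mixtures of ~100 molecules and detected by a quadrupole time-of-flight mass spectrometer in positive and negative ionization mode. Retention time came from computationally picked adduct peaks, each inspected by hand.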

CC1CCN(S(=O)(=O)c2ccc(-c3nnc(C4CCC4)o3)o2)CC1
RP-LC retention time: 1030 s

O=S(=O)(c1ccc2c(c1)OCCO2)N1CC[C@@H]2COCCN(Cc3cccnc3)[C@@H]2C1
RP-LC retention time: 629 s

COc1ccc(NC(=O)CCc2c(C)nn(-c3cc(N(C)C)ncn3)c2C)cc1Cl
RP-LC retention time: 822 s

O=C(CN1C(=O)C(C(=O)N2CCCC2)Sc2ccccc21)N1CCN(Cc2ccccc2)CC1 (centres undefined)
RP-LC retention time: 625 s

CCCNC(=O)C1CCCN(c2ccc(SCC(=O)Nc3ccc4c(c3)OCCO4)nn2)C1 (centres undefined)
RP-LC retention time: 657 s

Cc1ccccc1NC(=O)N1CC(Cc2nncn2C(C)C)C1
RP-LC retention time: 616 s

CSc1ccc(-c2nc3cccc(C)n3c2Nc2ccc3c(c2)OCCO3)cc1
RP-LC retention time: 719 s

Cc1cccc(-c2ncccc2CNS(=O)(=O)Cc2cccc(F)c2)c1
RP-LC retention time: 774 s

COc1cc(OC)cc(C(=O)N2CCN(c3nnc4c(Cl)cccn34)CC2)c1
RP-LC retention time: 603 s

CN(CCNC(=O)CCCn1c2ccccc2c2cnn(C)c(=O)c21)Cc1ccccc1
RP-LC retention time: 652 s

C=CCNC(=O)C1CCCN(C(=O)Nc2ccc(NC(=O)Nc3ccc(C)c(C)c3)cc2)C1 (centres undefined)
RP-LC retention time: 766 s

CCOC(=O)c1ccccc1NC(=O)Cn1cnc2nc(N3CCC(C(=O)NC)CC3)sc2c1=O
RP-LC retention time: 701 s

Cc1cc(C)n(-c2ccc(SCC(=O)N3CCCc4ccccc43)nn2)n1
RP-LC retention time: 914 s

Cc1nn(CC(=O)NCCCN2CCCC2)c(=O)c2nn(-c3ccccc3)c(C)c12
RP-LC retention time: 597 s

COc1ccc(N2C(=O)C3N=NN(Cc4nc(-c5ccccc5C)no4)C3C2=O)cc1 (centres undefined)
RP-LC retention time: 976 s

CCOC(=O)c1nnn(-c2ccccc2OCC)c1C(=O)OCC
RP-LC retention time: 970 s

O=C(NCc1ccco1)c1cc2c(s1)CCN(C(=O)c1ccc(Cl)cc1)C2
RP-LC retention time: 846 s

Cc1ccc(C(=O)NC2CCN(c3ccccc3)C2=O)cc1F (centres undefined)
RP-LC retention time: 823 s

CCn1ccc2c(cc(C(=O)Nc3c(C)cccc3C)n2C)c1=O
RP-LC retention time: 721 s

CC1(C)CS(=O)(=O)N(c2cccc(C(=O)N3CCN(c4ccccn4)CC3)c2)C1=O
RP-LC retention time: 608 s

CCOc1cc(C)c(S(=O)(=O)N2CCC(C(N)=O)CC2)cc1C
RP-LC retention time: 715 s

CN1CCn2cc(S(=O)(=O)Nc3ccc(F)cc3F)cc2C1=O
RP-LC retention time: 671 s

Cc1cc(NC(=O)C(=O)NCCc2ccc(S(N)(=O)=O)cc2)no1
RP-LC retention time: 613 s

CCCCS(=O)(=O)N1CC[C@H](CN(C)C(C)=O)[C@H](N(C)C)C1
RP-LC retention time: 584 s

COc1cccc(NC(=O)Cn2c(=O)c(CCC(=O)NCC(C)C)nc3ccccc32)c1
RP-LC retention time: 798 s

COc1ccc(C2CC(=O)N(c3ccc(C)cc3C)C(=O)C2)cc1OC
RP-LC retention time: 889 s

Cc1cc(OCc2nc(C)c(C(=O)Nc3nc(-c4ccccc4)cs3)s2)ccc1Cl
RP-LC retention time: 1330 s

CCc1cc(=O)n(CC(=O)N(C)c2cccc(C)c2)c(-c2ccccc2)n1
RP-LC retention time: 1110 s

O=C(CCc1ccccc1)Nc1cnc(-c2cccnc2)nc1
RP-LC retention time: 690 s

COCCC(=O)NC1CCN(C2=NS(=O)(=O)C(c3ccc(C)cc3)=C2C)CC1
RP-LC retention time: 708 s

Cc1cccc2c(C(=O)NC(C)C)cc(N(C)C)nc12
RP-LC retention time: 614 s

O=C(c1ccc(-c2cccs2)nc1)N1CCN(c2ccc(F)cc2)CC1
RP-LC retention time: 950 s

Cc1nn(C)c2nc(OCC(=O)Nc3ccccc3Cl)cc(C(F)(F)F)c12
RP-LC retention time: 1130 s

CC(C)NC(=O)Cc1cn2cc(Br)ccc2n1
RP-LC retention time: 556 s

CCOC(=O)C1=C(CN2CCN(CC)CC2)NC(=O)NC1c1ccccc1Cl (centres undefined)
RP-LC retention time: 571 s

Cc1ccc(NC(=O)C2CCCN(C(=O)C3Sc4ccccc4NC3=O)C2)cc1Cl (centres undefined)
RP-LC retention time: 893 s

Cc1nn(C)c(C)c1C(C)NC(=O)CCC1CCCN(c2cc(NC3CC3)ncn2)C1 (centres undefined)
RP-LC retention time: 594 s

Cc1c(Cl)cccc1NC(=O)Cn1c(=O)cc(-c2nc(C(C)C)no2)c2ccccc21
RP-LC retention time: 1080 s

O=C(NC1CCN(c2cc(-c3ccc(F)cc3)[nH]n2)C1)c1cccc(F)c1 (centres undefined)
RP-LC retention time: 735 s

O=C(O)c1cccc(Nc2c(-c3ccc([N+](=O)[O-])cc3)nc3cnccn23)c1
RP-LC retention time: 717 s

O=C(c1cccs1)N1CC(Oc2cccc(-c3nc(-c4ccccc4)no3)c2)C1
RP-LC retention time: 1180 s

COCc1cc(=O)n(CC(=O)Nc2ccc(F)cc2)c(N2CCOCC2)n1
RP-LC retention time: 797 s

O=C(O)c1cnc(N2CCOCC2)nc1-c1ccccn1
RP-LC retention time: 604 s

Cc1cccc(C(=O)Nc2nc(-c3ccc4c(c3)NC(=O)C(C)O4)c(C)s2)c1 (centres undefined)
RP-LC retention time: 979 s

Cc1nc2cc3c(cc2n1CC(=O)Nc1ccc(F)c(Cl)c1)OCCO3
RP-LC retention time: 690 s

COC(=O)c1ccc2c(=O)n(-c3ccccc3)c(N3CCCC3)nc2c1
RP-LC retention time: 908 s

Cc1nc(N2CCN(c3ncccn3)CC2)nc2c1C(=O)CCC2
RP-LC retention time: 886 s

Cc1cc(C(=O)N2CCC(c3noc(-c4ccncc4)n3)C2)nn1C (centres undefined)
RP-LC retention time: 661 s

COC(=O)C(NC(=O)N1CC(Cn2c(C)cnc2C2CCOCC2)C1)C(C)C (centres undefined)
RP-LC retention time: 600 s

Cc1ccc(S(=O)(=O)N2CCc3nc(-c4ccc(Cl)cc4)ncc3C2)cc1
RP-LC retention time: 1150 s

CN1C(=O)c2cccn2CC1CNC(=O)NCCc1ccccc1 (centres undefined)
RP-LC retention time: 661 s

CCN(CCN(C)C)C(=O)c1c2c(nc3ccccc13)C(=O)N(C1CCCCC1)C2
RP-LC retention time: 601 s

COc1ccc2c(c1)c(N1CCCC1=O)c(C(=O)NCCc1ccc(OC)c(OC)c1OC)n2C
RP-LC retention time: 858 s

CCc1cc(C(=O)Nc2ccc(Cl)cc2)nc2ccnn12
RP-LC retention time: 1080 s

COC(=O)CNC(=O)N1CCN(c2nc3ccccc3n3cccc23)CC1
RP-LC retention time: 590 s

CCNC(=O)c1nnc(-c2ccc(S(=O)(=O)N3CCC(C)CC3)cc2)o1
RP-LC retention time: 875 s

CCC(=O)N1CCc2cc(C(=O)N3CCOCC3)ccc21
RP-LC retention time: 637 s

O=C(Nc1c(C(=O)Nc2ccccc2F)oc2ccccc12)c1ccc(Br)o1
RP-LC retention time: 1190 s

O=C(Cc1ccccc1F)Nc1cnc(-c2cccnc2)nc1
RP-LC retention time: 652 s

COc1cc(NC(=O)c2cnc3c(c2)c(=O)n(C)c(=O)n3-c2ccc(C)cc2)cc(OC)c1
RP-LC retention time: 952 s

CCC(=O)O[C@]1(C(=O)CO)CC[C@H]2[C@@H]3CCC4=CC(=O)CC[C@]4(C)[C@H]3CC[C@@]21C
RP-LC retention time: 1060 s

COCCN(Cc1ccc(C(C)C)cc1)Cc1cc(=O)n2cc(C)ccc2n1
RP-LC retention time: 719 s

COCCCNC(=O)c1cccnc1N1CCNC(c2ccccc2)C1 (centres undefined)
RP-LC retention time: 578 s

Cc1nc(-c2csc(S(=O)(=O)N3CCC(C(=O)N(C)Cc4ccccc4)CC3)c2)no1
RP-LC retention time: 898 s

CCOc1ccc(NC(=O)C2CCCN(c3ccc(=O)n(-c4ccc(C)c(Cl)c4)n3)C2)cc1 (centres undefined)
RP-LC retention time: 1010 s

Cc1[nH]c2ccccc2c1C(=O)C(=O)N1CC2CC(C1)c1cccc(=O)n1C2 (centres undefined)
RP-LC retention time: 612 s

CCN(C(=O)C1C(=O)NC2(C)CC1c1ccccc1O2)c1ccccc1 (centres undefined)
RP-LC retention time: 820 s

COc1ccccc1CNC(=O)c1nnc(-c2ccc(S(=O)(=O)N(C)C)cc2)o1
RP-LC retention time: 852 s

CCOc1ccc(NC(=O)N2CCC(N(C)C(C)C)CC2)cc1
RP-LC retention time: 588 s

C/C(=C\c1csc(C)n1)[C@@H]1C[C@@H]2O[C@]2(C)CCC[C@H](C)[C@H](O)[C@@H](C)C(=O)C(C)(C)[C@@H](O)CC(=O)N1
RP-LC retention time: 707 s

CC(C)NC(=O)c1cc(N2CCCC2)n2nccc2n1
RP-LC retention time: 784 s

CCn1ccc2c(cc(C(=O)Nc3cc(C)ccc3C)n2C)c1=O
RP-LC retention time: 721 s

COc1ccccc1CC(=O)Nc1ccc2c(c1)CCC(=O)N2
RP-LC retention time: 670 s

CC(CCc1ccccc1)NC(=O)C1CCN(Cc2cn(C)c3ccc(Cl)cc23)CC1 (centres undefined)
RP-LC retention time: 790 s

Cn1c(=O)n(C)c2cc(CNc3ccc(O)cc3)ccc21
RP-LC retention time: 1190 s

Cc1ccc(-c2cc(C(=O)N3CCN(c4ccc(N5CCOCC5)nn4)CC3)[nH]n2)c(C)c1
RP-LC retention time: 638 s

Cc1cc(-c2c(C)sc(C)c2S(=O)(=O)Nc2ccc(C)c(F)c2)n[nH]1
RP-LC retention time: 1080 s

COC(=O)c1ccccc1NC(=O)C1(c2cccs2)CCOCC1
RP-LC retention time: 1030 s

CSc1ccc(CNC(=O)c2ccc3ccnc(N4CCN(C(=O)c5ccco5)CC4)c3c2)cc1
RP-LC retention time: 732 s

COc1ccc(-c2ccnc3nc(-c4cccs4)nn23)cc1OC
RP-LC retention time: 832 s

C[C@@H](C(=O)O)c1ccc(-c2ccccc2)c(F)c1
RP-LC retention time: 974 s

Cn1c(=O)c(N2CCN(C(=O)C3(c4ccccc4)CC3)CC2)nc2ccccc21
RP-LC retention time: 951 s

O=C(Cc1cccs1)N1CCN(c2ccc(-c3ccco3)nn2)CC1
RP-LC retention time: 734 s

Fc1ccc(OCc2nc(C3CCCN3)no2)cc1 (centres undefined)
RP-LC retention time: 564 s

CC(C)OCCCNC(=O)C1CCCCC(=O)N1 (centres undefined)
RP-LC retention time: 617 s

O=C(CCc1c(-c2ccc(F)cc2)nc2ccccn12)Nc1ccccc1F
RP-LC retention time: 653 s

O=c1ccn(-c2ccc(Cl)cc2)nc1-c1nc(-c2cccc(F)c2)no1
RP-LC retention time: 954 s

O=S(=O)(c1ccc2c(c1)OCCO2)N1CCCn2nc(-c3cccs3)cc2C1
RP-LC retention time: 908 s

CCOc1ccc(Nc2c(-c3ccc(C(=O)O)cc3)nc3cnccn23)cc1
RP-LC retention time: 729 s
